Test results as given in patent US10344065B2, “Method for treating Alzheimer's disease and method for downregulating protein aggregation in brain” (National Cheng Kung University, priority 2017, dated 2019).
Residues, ends and D or L forms follow the SMILES beside them. *: point of attachment. Cbz = O=C(OCc1ccccc1)*

Legend:
MCF7 cell lysates = assay: Zfration and degradation of proteins in MCF7 cell lysates; format: biochemical, human
Protocol: (§1) Aliquots of Zfra-deficient breast MCF7 cell lysates (100 μg) were incubated with Zfra (100 μM) for various durations in the presence or absence of proteasome inhibitor MG-132 (50 μM). Zfra formed complexes with cytosolic proteins (or zfrated; see arrows), and disappeared with time even in the presence of MG-132. (B and C) Zfra-negative prostate DU145 cells were exposed to UV (160-720 mJ/cm^2), and aliquots of whole cell lysates (100 μg) were incubated with Zfra peptide (100 μM) for various durations (in PBS) at 37° C., in the presence of a cocktail of protease inhibitors (1:10 dilution). Zfrated proteins (70, 72, 200 kDa and minor band ladders) and exogenous Zfra peptide were degraded with time (>99% in 120 minutes; reducing SDS-PAGE). Synthetic Zfra was in PBS at the first lane at the left, and in Milli-Q water at the last lane at the right. Zfra-free control lysates had only less than 10% degradation of total proteins after incubation for 120 minutes, in the presence of protease inhibitors (data not shown). In the diagram of FIG. 6C, at each time points, the left bar is cell lysates, and the right bar is Zfra peptide. (D) L929 cell lysates (100 μg) were incubated with Zfra peptide (100 μM) for 30 minutes at 37° C. (in PBS). A 30-kDa protein was zfrated in 30 minutes, and 22- and 80-kDa protein was zfrated rapidly and then degraded in 30 minutes (reducing SDS-PAGE). *A nonspecific immunoreactive or a zfrated protein in L929 cells. (E) Zfra peptide (100 μM) bound recombinant His-Tau (2 μg protein) in PBS for 24 hours at room temperature, and the resulting complex resisted dissociation by reducing SDS-PAGE. Abbreviation: Zfra, zinc finger-like protein that regulates apoptosis.
To continue to investigate how Zfra reduces protein aggregation in vivo, we examined whether Zfra interacts with cytosolic proteins and accelerates protein degradation. Zfra peptide at high concentrations may undergo self-polymerization especially in PBS. […] Zfra-deficient human breast MCF7 cells were used. […]

[1] = Self-polymerization of Zfra peptide in PBS (reducing SDS-PAGE); format: physicochemical; conditions: >1 mM in PBS; molecular sizes from 3.5 kDa up to 78 and 80 kDa
Aβ42 = target: T1, Aβ42 (Homo sapiens, UniProt P05067); assay: Aβ42 aggregation in vitro (SDS-PAGE); format: biochemical; conditions: 100 μM each peptide, room temperature, 24 hours or less
T1 construct: purchased AnaSpec
Excerpt: FIG. 5 includes photos and diagrams showing that Zfra suppresses polymerization or aggregation of serine-containing TPC6AΔ and other peptides in PBS. […] The mixtures were subjected to nonreducing sodium dodecyl sulfate polyacrylamide gel electrophoresis (SDS-PAGE). (A) Full-length Zfra or red-fluorescent TMR-Zfra blocked aggregation of Aβ42 (lanes 3, 5, and 7). […] The membrane was stained with antibody against Aβ. (B) Zfra4-10 and one of the TPC6AΔ peptides were resuspended in Milli-Q water or PBS and incubated for 24 hours at room temperature. Zfra4-10 suppressed the polymerization of serine-containing peptides. Reduction in intensity=[1−(Z.P)/(Z+P)]×100%, where Z=Zfra4-10, P=an indicated peptide, and Z.P=peptide mixture. […] Zfra4-10 suppressed polymerization of these peptides in PBS.
Zfra and serine-containing peptides were synthesized by Genemed Synthesis (San Antonio, Tex., USA), (1) Zfra1-31, […] (SEQ ID NO: 2); (2) Zfra4-10, RRSSSCK (SEQ ID NO: 1); (3) WWOX7-21, AGLDDTDSEDELPPG (SEQ ID NO: 3); (4) pS14-WWOX7-21, AGLDDTDpSEDELPPG (SEQ ID NO: 4); (5). […]

[2] = tested on: pyramidal neurons in the hippocampi; assay: Melanoma B16F10-induced neurodegeneration in nude mice; format: in vivo, mouse; conditions: nude mice, B16F10; data not shown
Protocol: FIG. 4 includes photos showing that Zfra suppresses melanoma B16F10-mediated neurodegeneration in the hippocampus. Nude mice were preinjected with 100 μL, of sterile Milli-Q water or Zfra4-10 (1 mM in sterile water) in 3 consecutive weeks. After treatment for a week, these mice were inoculated with melanoma B16F10 cells on both flanks (2×10^5 cells in 100-μL, PBS). Mice were sacrificed when the tumor sizes grew up to 2000-3000 mm^3 in about a month. (A) Zfra blocked neurodegeneration in the hippocampus (top panel) and prevented the formation of TPC6AΔ plaques in the cortex (bottom panel), which negatively correlates with pS14-WWOX expression. Note the presence of condensed apoptotic nuclei in the hippocampal neurons in the control mice, (B) Metastasis of B16F10 cells to the lung was blocked in Zfra-treated mice. Compared to controls, Zfra suppressed p-S14WWOX expression in the lung by ˜72% suppression (three sections). […] (C and D) The non-spatial learning and memory were determined by novel object recognition task for both 3×Tg and Wwox+/− mice. […]
Six- to eight-week-old male nude (BALB/cAnN.Cg-Foxn1^nu/CrlNarl) mice (National Laboratory Animal Center, Taiwan) were used. […] Tumor volumes were measured daily and calculated using the equation, D×(d)^2/2, where D and d are the major and minor diameters, respectively. […] Z-cell distribution in organs was determined under fluorescence microscopy.

L929 cell lysates = assay: Zfration and degradation of proteins in L929 cell lysates; format: biochemical, murine
Protocol: as §1, with “A 30-kDa protein was zfrated in 30 minutes, and 22- and 80-kDa protein was zfrated rapidly and then degraded in 30 minutes (reducing SDS-PAGE). *A nonspecific immunoreactive or a zfrated protein in L929 cells. (E) Zfra peptide (100 μM) bound recombinant His-Tau (2 μg protein) in PBS for 24 hours at room temperature, and the resulting complex resisted dissociation by reducing SDS-PAGE. Abbreviation: Zfra, zinc finger-like protein that regulates apoptosis.” left out

T1 sequence (P05067 672-713): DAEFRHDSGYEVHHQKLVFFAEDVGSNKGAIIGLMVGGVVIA

Compound	effect of proteasome inhibitor on degradation of zfrated proteins (MCF7 cell lysates; MCF7 lysates with Zfra, MG-132 50 μM)	self-polymerization [1]	aggregation of Aβ42 (Aβ42)	results in similar experiments (melanoma-induced neurodegeneration, metastasis, pS14-WWOX) [2]	zfration and degradation of 80 and 22 kDa proteins (L929 cell lysates; 37° C., PBS)	zfration of 30-kDa protein (L929 cell lysates; 30 minutes)	degradation of zfrated proteins (MCF7 cell lysates; MCF7 lysates, with or without MG-132)	binding of cellular proteins (zfration) (MCF7 cell lysates; MCF7 lysates, complexes resisted SDS and β-mercaptoethanol)
CC(C)C[C@@H](C=O)NC(=O)[C@H](CC(C)C)NC(=O)[C@H](CC(C)C)NC(=O)OCc1ccccc1 [MG-132, reference compound] (Cbz-Leu-Leu-Leu-aldehyde)	did not block but enhanced							
MSSRRSSSCKYCEQDFRAHTQKNAAFPFLAN (MSSRRSSSCKYCEQDFRAHTQKNAATPFLAN; Synthesized pepetide) [Zfra1-31, full-length 31-amino-acid zinc finger-like protein that regulates apoptosis]		underwent self-polymerization	blocked	Comparable results	rapidly zfrated and then degraded in 30 minutes	became zfrated	degraded with time of incubation	Zfra-bound cellular proteins
